Measured values from the supplement of paper PMC8671470.

Experiments:
Settings in all cases: 72 h
HL-60 [1] = assay: cell viability (% survival relative to DMSO control); higher = less cytotoxic
In short: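 HL-60 cells in RPMI 1640 with 10% FBS were rescreened against the full library on 384-well plates at five tenfold concentrations, 1–10,000 nM, in duplicate. Each screen was run with DMSO or 100 nM of one of three metabolic inhibitors, for 72 h at 37 °C, 5% CO2. Viability was read by CellTiter-Glo and normalised to DMSO and 10 μM proteasome-inhibitor wells. Where given, area under the curve came from four-parameter log-logistic fits (drc, PharmacoGx).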

LAMA-84 [2] = assay: cell viability (% survival relative to DMSO control, bortezomib = 0%); higher = less cytotoxic
In short: (§1)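 Fifteen myeloid leukaemia cell lines (10 AML, 5 CML) were seeded at a density titrated to the linear growth range into 384-well plates pre-printed with compounds at 1, 10, 100, 1000 or 10000 nM in duplicate. Plates were incubated for 72 h at 37 °C with 5% CO2. Viability was then read by CellTiter-Glo luminescence. Each value is percent survival averaged over the duplicates, with vehicle set to 100% and a 10 µM positive control to 0%.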

Mono-Mac-6 [3] = assay: as above
In short: as §1

K-562 [4] = assay: as above
In short: as §1

ML-2 [5] = assay: as above
In short: as §1

BV-173 [6] = assay: as above
In short: as §1

KU-812 [7] = assay: as above
In short: as §1

HEL [8] = assay: as above
In short: as §1

MV4-11 [9] = assay: as above
In short: as §1

NOMO-1 [10] = assay: as above
In short: as §1

SHI-1 [11] = assay: as above
In short: as §1

THP-1 [12] = assay: as above
In short: as §1

HL-60 [13] = assay: as above
In short: as §1

LAMA-84 [14] = test system: LAMA-84
In short: (§2)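 The IC50 was read from log-logistic dose–response fits. Fifteen myeloid leukaemia lines were exposed for 72 h at 37 °C with 5% CO2 to five tenfold doses from 1 to 10,000 nM in duplicate. ATP luminescence, normalised to vehicle and to a 10 µM positive control, was fitted with four parameters.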

KG-1 = test system: KG-1
In short: as §2

Mono-Mac-6 [15] = test system: Mono-Mac-6
In short: as §2

K-562 [16] = test system: K-562
In short: as §2

ML-2 [17] = test system: ML-2
In short: as §2

BV-173 [18] = test system: BV-173
In short: as §2

MOLM-13 = test system: MOLM-13
In short: as §2

KU-812 [19] = test system: KU-812
In short: as §2

HEL [20] = test system: HEL
In short: as §2

MV4-11 [21] = test system: MV4-11
In short: as §2

NOMO-1 [22] = test system: NOMO-1
In short: as §2

SHI-1 [23] = test system: SHI-1
In short: as §2

THP-1 [24] = test system: THP-1
In short: as §2

KCL-22 = test system: KCL-22
In short: as §2

HL-60 [25] = test system: HL-60
In short: as §2

COc1ccc(C(=O)Nc2c(Cl)cncc2Cl)cc1OC1CCCC1 [Piclamilast]
cell viability [%], HL-60 [1]
Settings	0.001 µM	0.01 µM	0.1 µM	1 µM	10 µM
co-treatment: AZD3965 100 nM	104	104	95.5	105	107
co-treatment: DMSO vehicle	101	100.9	98.4	97.54	104.6
co-treatment: GSK2194069 100 nM	101.3	100	98.8	97.1	109.3
co-treatment: pictilisib 100 nM	107	107	96.4	95.35	106

cell viability [%]
Settings	1 nM	10 nM	100 nM	1000 nM	10000 nM
BV-173 [6]	86.3	107	92.1	114	99.7
HEL [8]	95.3	108	102	119	109
HL-60 [13]	87.1	103	65.2	87.5	115
K-562 [4]	90.5	111	90.7	108	83.1
KU-812 [7]	91.4	94.6	90	105	99.1
LAMA-84 [2]	87.5	114	91.2	110	103
ML-2 [5]	84.4	104	102	88.2	110
MV4-11 [9]	92.5	110	92.8	118	114
Mono-Mac-6 [3]	93.6	107	80.6	100	87.7
NOMO-1 [10]	87.1	104	94.6	97.1	110
SHI-1 [11]	94.1	105	106	99.3	113
THP-1 [12]	94	104	97.6	102	109

Settings	IC50 (cell viability) [µM]
BV-173 [18]	> 10
HEL [20]	> 10
HL-60 [25]	> 10
K-562 [16]	> 10
KCL-22	> 10
KG-1	> 10
KU-812 [19]	> 10
LAMA-84 [14]	> 10
ML-2 [17]	> 10
MOLM-13	> 10
MV4-11 [21]	> 10
Mono-Mac-6 [15]	> 10
NOMO-1 [22]	> 10
SHI-1 [23]	> 10
THP-1 [24]	> 10

COc1cc(/C=C/C(=O)N2CCC=CC2=O)cc(OC)c1OC [Piperlongumine]
cell viability [%], HL-60 [1]
Settings	0.001 µM	0.01 µM	0.1 µM	1 µM	10 µM
co-treatment: AZD3965 100 nM	101	104	102	99.9	-0.192
co-treatment: DMSO vehicle	98.08	100.5	102.8	97.9	-0.533
co-treatment: GSK2194069 100 nM	101	102	104.6	87.9	-0.0941
co-treatment: pictilisib 100 nM	97.3	94.8	94.9	83.8	3.95

cell viability [%]
Settings	1 nM	10 nM	100 nM	1000 nM	10000 nM
BV-173 [6]	93.3	99.9	101	71.4	-0.383
HEL [8]	90.1	111	103	97.5	-0.0957
HL-60 [13]	92.7	100	102	85.7	0.441
K-562 [4]	102	91.5	106	77.3	0.672
KU-812 [7]	94.6	110	94.9	92.2	3.51
LAMA-84 [2]	104	106	104	98.8	2.16
ML-2 [5]	102	100	92.8	72.6	-0.133
MV4-11 [9]	95	90.4	89.7	44.4	-0.271
Mono-Mac-6 [3]	94.3	107	98.7	86.5	1.58
NOMO-1 [10]	94.9	103	105	100	0.949
SHI-1 [11]	100	98.3	106	89	0.583
THP-1 [12]	103	93.9	101	88	-0.152

Settings	IC50 (cell viability) [µM]
BV-173 [18]	1.62
HEL [20]	3.03
HL-60 [25]	2.36
K-562 [16]	1.95
KCL-22	2.92
KG-1	3.33
KU-812 [19]	2.87
LAMA-84 [14]	3.22
ML-2 [17]	1.66
MOLM-13	1.93
MV4-11 [21]	0.959
Mono-Mac-6 [15]	2.38
NOMO-1 [22]	3.22
SHI-1 [23]	2.53
THP-1 [24]	2.45

O=C(NNc1ccccc1)c1ccncc1 [PluriSln 1]
cell viability [%], HL-60 [1]
Settings	0.001 µM	0.01 µM	0.1 µM	1 µM	10 µM
co-treatment: AZD3965 100 nM	101	101	96.2	110	36
co-treatment: DMSO vehicle	102	102	102	103	49.8
co-treatment: GSK2194069 100 nM	103.4	103	95.8	104	91.3
co-treatment: pictilisib 100 nM	94.1	107	83.7	116	92.411

cell viability [%]
Settings	1 nM	10 nM	100 nM	1000 nM	10000 nM
BV-173 [6]	86	93.5	97	104	82.6
HEL [8]	95.1	99.2	96.8	105	78.1
HL-60 [13]	102	94.1	90.5	109	20.7
K-562 [4]	93.4	85.7	90.4	86.4	52
KU-812 [7]	93.3	93.8	93.2	102	92.5
LAMA-84 [2]	88.4	99.4	92.1	106	39.9
ML-2 [5]	93.3	97.6	92.8	103	81
MV4-11 [9]	92.1	99.2	99.3	109	89.4
Mono-Mac-6 [3]	106	103	104	110	87.2
NOMO-1 [10]	91	101	91.8	106	89.6
SHI-1 [11]	91.5	95.5	93	105	92.6
THP-1 [12]	97.2	97.1	100	108	95.4

Settings	IC50 (cell viability) [µM]
BV-173 [18]	> 10
HEL [20]	> 10
HL-60 [25]	5.48
K-562 [16]	9.7
KCL-22	8.52
KG-1	> 10
KU-812 [19]	> 10
LAMA-84 [14]	8.48
ML-2 [17]	> 10
MOLM-13	5.72
MV4-11 [21]	> 10
Mono-Mac-6 [15]	> 10
NOMO-1 [22]	> 10
SHI-1 [23]	> 10
THP-1 [24]	> 10

CC(C)c1nc(CN(C)C(=O)N[C@H](C(=O)N[C@@H](Cc2ccccc2)C[C@H](O)[C@H](Cc2ccccc2)NC(=O)OCc2cncs2)C(C)C)cs1 [Ritonavir]
cell viability [%], HL-60 [1]
Settings	0.001 µM	0.01 µM	0.1 µM	1 µM	10 µM
co-treatment: AZD3965 100 nM	99.9	102	78.3	102	104
co-treatment: DMSO vehicle	101	103.3	94.5	87.4	105.8
co-treatment: GSK2194069 100 nM	94.5	110	88	86.6	67.1
co-treatment: pictilisib 100 nM	105	101	97.5	93.9	99.2

cell viability [%]
Settings	1 nM	10 nM	100 nM	1000 nM	10000 nM
BV-173 [6]	107	89.8	96	85.7	39.1
HEL [8]	90.8	99.8	107	94.2	87.8
HL-60 [13]	99	101	113	103	86.6
K-562 [4]	112	112	89	108	75.5
KU-812 [7]	109	95.1	102	95.9	78.8
LAMA-84 [2]	115	103	102	100	88.6
ML-2 [5]	94.2	94.2	108	83.5	64.4
MV4-11 [9]	120	98.1	95.9	87.2	71.9
Mono-Mac-6 [3]	91.7	98.6	97.6	88.1	79
NOMO-1 [10]	108	88.5	103	90.3	81.3
SHI-1 [11]	100	101	109	104	83.1
THP-1 [12]	97.1	91.7	107	97.3	88.2

Settings	IC50 (cell viability) [µM]
BV-173 [18]	6.62
HEL [20]	> 10
HL-60 [25]	> 10
K-562 [16]	> 10
KCL-22	> 10
KG-1	> 10
KU-812 [19]	> 10
LAMA-84 [14]	> 10
ML-2 [17]	> 10
MOLM-13	> 10
MV4-11 [21]	> 10
Mono-Mac-6 [15]	> 10
NOMO-1 [22]	> 10
SHI-1 [23]	> 10
THP-1 [24]	> 10

C=C(C)[C@H]1Cc2c(ccc3c2O[C@@H]2COc4cc(OC)c(OC)cc4[C@@H]2C3=O)O1 [Rotenone]
cell viability [%], HL-60 [1]
Settings	0.001 µM	0.01 µM	0.1 µM	1 µM	10 µM
co-treatment: AZD3965 100 nM	96.5	99.7	83	83.4	7.8
co-treatment: DMSO vehicle	97.7	103	86.415	30.8	10.4
co-treatment: GSK2194069 100 nM	86.2	91.1	78.3	35.8	12.9
co-treatment: pictilisib 100 nM	83.6	74.5	83.9	34.5	9.82

cell viability [%]
Settings	1 nM	10 nM	100 nM	1000 nM	10000 nM
BV-173 [6]	106	77	49.9	1.45	0.515
HEL [8]	99.4	92	63.2	12.3	1.89
HL-60 [13]	97.1	79.3	82.1	0.525	3.28
K-562 [4]	88.9	66.4	30.6	3.39	2.57
KU-812 [7]	87.9	65.9	16.6	3.5	2.89
LAMA-84 [2]	101	87.5	51.4	18.3	14.6
ML-2 [5]	94.4	94.1	97.1	1.51	3.18
MV4-11 [9]	97.2	70	58.4	0.45	0.258
Mono-Mac-6 [3]	94.1	96.4	76.7	9.03	2.24
NOMO-1 [10]	93.9	109	92	39.8	8.45
SHI-1 [11]	96.3	93.4	73.7	4.23	5.24
THP-1 [12]	98.9	104	76.2	37.6	24.5

Settings	IC50 (cell viability) [µM]
BV-173 [18]	0.08
HEL [20]	0.168
HL-60 [25]	0.269
K-562 [16]	0.0407
KCL-22	0.206
KG-1	0.0684
KU-812 [19]	0.0232
LAMA-84 [14]	0.0744
ML-2 [17]	0.322
MOLM-13	0.176
MV4-11 [21]	0.156
Mono-Mac-6 [15]	0.225
NOMO-1 [22]	0.644
SHI-1 [23]	0.179
THP-1 [24]	0.268
